Results reported in patent US20080267862A1, “METHOD OF TREATING CANCER” (priority 2007, published 2008).

What was measured:
[1] = test system: recurrence lymph node masses; assay: clinical response of recurrent lymph node masses in a patient followed by palliative chemotherapy; format: in vivo, human; conditions: one patient; LMH 4 g/day I.V. for 4 days, then 2 cycles of palliative chemotherapy with Cisplatin and 5 FU
Text: […] They underwent Radical surgery in the form of total excision of primary tumors and bilateral Supra-omohyoid Neck dissection. Adjuvant External Beam Radiotherapy (EBRT) was then given 66 Gy/33 Fr 6½ weeks and the patient went into complete remission and was disease free for >9 months.
Subsequently, the patient had multiple nodal recurrences presenting with palpable masses.
(§1) Recurrences were confirmed with biopsy and HP examination. Subsequently, the patient was given 2 cycles of Palliative Chemotherapy, following Injection LMH (Lysine Monohydrochloride) for 4 days (4 g/day I.V. in divided doses), with Cisplatin and 5 FU.

[2] = test system: squamous cell carcinomatous tumor; assay: histopathology (HPE) of neo-angiogenesis 96 hrs after Injection LMH in a patient; format: in vivo, human; conditions: LMH 4 g/day I.V. for 4 days, HPE after 96 hrs
Text: as §1
HPE was done 96 hrs after Injection LMH to confirm the neo-angiogenesis (FIGS. 4 & FIGS. 5 & FIGS. 6-9)(Also compare FIGS. 4 to 9 with FIGS. 10-11 for quantitative comparison of angiogenic response in LMH treated squamous cell carcinomatous tumor vs. control tumours).

cells in culture = assay: cellular expansion / rapid cellular growth in culture in-vitro; format: cell-based; conditions: FIG. 3
Text: (§2) Lysine induced repair process depends on the ability of the amino acid/derivative(s) to induce rapid and controlled cellular expansion, both in-vitro and in-vivo. The phenomenon is probably based on the ability of the molecule(s) to act as the cell surface concentrator(s) of circulating growth factor(s). The rapid angiogenic property of the molecule(s) is also entirely dependent on the same phenomenon, where angiogenic factors are concentrated, locally, on the endothelial cell surface receptors, mediated by the molecule(s) working, possibly, as molecular bridges.

expanding cells in-vivo = assay: expanding cells in-vivo
Text: The present invention is based on an improvement over the inventor's earlier discovery that lysine, without the presence of any other angiogenic factor(s)/angiogenic growth factor(s)/vasculogenic/granulation tissue inducing agent(s), is capable of inducing angiogenesis in ischaemic tissues. The inventor's initial inquiries were directed towards finding new chemical additives in a high-density-culture system, in-vitro, where the objective was to expand viable hybridoma cell mass to the maximum possible at the least possible time (lag phase minimization) and maintaining the viable cell mass in culture for the maximum possible time period, in both fed-batch as well as batch cultures. The final goal was to get highest possible yields of monoclonal antibody (Mab) in the said high-density culture. […] Because of its ability to expand cells in-vitro, the cationic amino acid was taken, along with its d-isomer and short oligomer (m.w. up to or around 500-2500) to in-vivo experimentation and clinical conditions, for controlled regeneration of cells (in clinical conditions), where in-situ regeneration of cells was centrally important along with angio-neogenesis/vasculogensis.

[3] = induction of angiogenesis in-vivo; conditions: for effectiveness, on their own, in inducing angiogenesis response: each on its own
Text: as §2

hybridoma cell mass = conditions: high-density hybridoma culture, fed-batch and batch; Datta, D et al. 1997; cited from earlier work

SMILES | outcome of recurrence lymph node masses [1] | angiogenic response in glandular structure (histopathology) ([2]; FIG. 4) | angiogenic response in tumor tissue (histopathology) ([2]; FIGS. 5-9, versus control FIGS. 10-11) | cellular expansion in culture (cells in culture; about 10 mcg/ml of added load, in addition to the usual load of l-lysine in the media) | effectiveness in expanding cells / inducing rapid cellular growth in-vitro, compared to l-lysine (cells in culture; in-vitro) | effectiveness in expanding cells in-vivo, compared to the l-variety (expanding cells in-vivo) | effectiveness, on their own, in inducing angiogenesis response [3] | effectiveness in inducing angiogenesis in-vivo, compared to l-lysine ([3]; in-vivo) | expansion of biomass (cell population) compared to other physico-chemical means (hybridoma cell mass)
Cl.NCCCC[C@H](N)C(=O)O [LMH, Lysine Monohydrochloride] | disappeared achieving a 2nd complete recovery | extensive angiogenic response | huge angiogenic and massive blood channel formation | – | – | – | – | – | –
NCCCC[C@@H](N)C(=O)O [d-lysine] | – | – | – | mediated cellular expansion in culture | equally effective | equally effective | equally effective | equally effective | –
NCCCC[C@H](N)C(=O)O [l-lysine] | – | – | – | – | – | – | equally effective | – | expand the biomass (cell population) at the least possible time
